Experimental findings from PubChem BioAssay (NCI) are described below.

SMILES strings stand for the structures. Values joined by “and” are separate entries in the source; they are usually repeats but may differ in a detail not shown here. Identical values can stand only once.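 Grown in 96-well plates, cells were treated for 48 hours with each compound at five concentrations. Insufficient inhibition: endpoint recorded as highest concentration tested. GI50: concentration for 50% inhibition of growth. TGI: concentration producing complete growth inhibition.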

Test systems include 786-0 renal; ACHN renal; HL-60(TB) leukemia; HT29 colon; IGROV1 ovarian; K-562 leukemia; OVCAR-3 ovarian; RXF 393 renal; SF-539 CNS; SK-MEL-5 melanoma.
Common to all, as to assay: NCI anticancer screen, dose series, 48 h

As to `Oc1cc(Br)cc2cc(Cl)cnc12`, the TGI with 786-0 renal was 38.8 µM; in the assay on ACHN renal, greater than 68 µM; in the assay on HL-60(TB) leukemia, 2.75 µM; in the assay with HT29 colon, greater than 40.9 µM; in the assay on IGROV1 ovarian, 27.1 µM; in the assay on K-562 leukemia it was 12.3 µM. In addition, the TGI is 11.2 µM with OVCAR-3 ovarian, 15.2 µM with RXF 393 renal, greater than 100 µM in the assay with SF-539 CNS and 15.4 µM in the assay on SK-MEL-5 melanoma.

For the compound `O=c1ccc2ccc(O)cc2o1`, the TGI in the assay with 786-0 renal, in the assay on ACHN renal, in the assay on HL-60(TB) leukemia, with HT29 colon, with IGROV1 ovarian and with OVCAR-3 ovarian was greater than 100 µM throughout. The TGI in the assay with RXF 393 renal, with SF-539 CNS and with SK-MEL-5 melanoma was greater than 100 µM each time.

As for `C=C(C(=O)O[C@H]1C(=O)C2=C(C)CCC3C(=C)C(=O)O[C@@H]3C2[C@]1(C)O)C1CC[C@]2(C)CCCC(=C)[C@H]2C1` (stereo not given in full), the TGI in the assay on 786-0 renal was 4.29 µM; with ACHN renal, 11 µM and 8.85 µM; in the assay with HL-60(TB) leukemia, 4.35 µM; in the assay with HT29 colon, 13.5 µM and 10.8 µM; in the assay on IGROV1 ovarian, 13.8 µM and 11.3 µM; with K-562 leukemia it was greater than 20.1 µM. The TGI is 9.84 µM and 9.06 µM with OVCAR-3 ovarian; 2.52 µM and 3.65 µM in the assay with RXF 393 renal; 16.5 µM and 10.3 µM in the assay on SF-539 CNS; 15.8 µM and 29.7 µM in the assay with SK-MEL-5 melanoma. Further, the GI50 is 5.19 µM with ACHN renal; 1.59 µM in the assay on HT29 colon; 7.28 µM in the assay on IGROV1 ovarian; 3.39 µM in the assay on OVCAR-3 ovarian; 1.79 µM in the assay on RXF 393 renal; 7.16 µM in the assay with SF-539 CNS. Also, the GI50 with SK-MEL-5 melanoma is 8.45 µM.

Regarding `[N-]=[N+]=C(C(=O)N1CCCC1=O)S(=O)(=O)c1ccccc1`, the TGI in the assay with 786-0 renal, in the assay with ACHN renal, in the assay with HL-60(TB) leukemia, with IGROV1 ovarian, with K-562 leukemia and with OVCAR-3 ovarian was greater than 100 µM each time. In addition, the TGI in the assay with RXF 393 renal, in the assay on SF-539 CNS and in the assay on SK-MEL-5 melanoma was greater than 100 µM in each case.

`CCN1CCC(O)(/C=C/c2ccc(OC)cc2)C(C(=O)/C=C/c2ccc(OC)cc2)C1` (stereo not given): the TGI in the assay with 786-0 renal is 12.4 µM; in the assay on ACHN renal, 26.6 µM; in the assay with HL-60(TB) leukemia, 52.2 µM; with HT29 colon, 25.4 µM; in the assay on IGROV1 ovarian it was 29.8 µM; in the assay with K-562 leukemia, 12.2 µM. Further, the TGI with OVCAR-3 ovarian amounted to 27.6 µM; in the assay with RXF 393 renal, 11.9 µM; in the assay on SF-539 CNS, 27.8 µM.

Turning to `CC1=C(C)C(=O)C(C2=CC(=O)C=CC2=O)=C(C2=CC(=O)C=CC2=O)C1=O`, the TGI in the assay on 786-0 renal, in the assay with ACHN renal, in the assay on HL-60(TB) leukemia, in the assay on HT29 colon, with IGROV1 ovarian and with RXF 393 renal was greater than 100 µM in each case. The TGI came to 51.7 µM in the assay on SF-539 CNS and 46.2 µM in the assay with SK-MEL-5 melanoma.

For `CC1(C)CCc2c(c(N=Nc3ccc(F)cc3)c3ccccc3c2O)O1`, the TGI in the assay on 786-0 renal is greater than 100 µM; in the assay with ACHN renal, greater than 100 µM; with HL-60(TB) leukemia, 65.1 µM; in the assay on HT29 colon it was 44.1 µM; with IGROV1 ovarian it was greater than 100 µM; with K-562 leukemia, greater than 100 µM. Besides, the TGI with OVCAR-3 ovarian was 70.8 µM; in the assay with RXF 393 renal, greater than 100 µM; in the assay on SF-539 CNS it was greater than 100 µM; with SK-MEL-5 melanoma, 21.1 µM.

In the case of `CC(=O)OC1COC(Nc2nc(N)n(C)c(=O)c2N=O)C(OC(C)=O)C1OC(C)=O` (stereo not given), the TGI with 786-0 renal, in the assay on ACHN renal, with HL-60(TB) leukemia, in the assay on HT29 colon, in the assay with IGROV1 ovarian and with OVCAR-3 ovarian was greater than 10 µM in each case. Moreover, the TGI in the assay with RXF 393 renal, in the assay with SF-539 CNS and in the assay on SK-MEL-5 melanoma was greater than 10 µM throughout.

Regarding `Cc1cc(S(=O)(=O)/N=C(/NN)NNc2cccc(C(F)(F)F)n2)c(S)cc1Cl`, the TGI stood at 47.9 µM with 786-0 renal; 50.1 µM in the assay with ACHN renal; 71.6 µM with HL-60(TB) leukemia; 43.1 µM in the assay with HT29 colon; 82.6 µM with K-562 leukemia; 62.7 µM in the assay with OVCAR-3 ovarian. Besides, the values for the TGI in the assay on RXF 393 renal, in the assay with SF-539 CNS and in the assay on SK-MEL-5 melanoma were 57.2 µM, 43.6 µM and 37.9 µM, respectively.

With `O=[N+]([O-])C(Cl)=C/C(=C(\Cl)SCc1ccccc1)[N+](=O)[O-]`, the TGI in the assay on 786-0 renal was 71.2 µM; in the assay on ACHN renal, 32.2 µM; with HL-60(TB) leukemia, 23.8 µM; in the assay with HT29 colon it was 68.6 µM; in the assay on IGROV1 ovarian it was 91 µM; in the assay with K-562 leukemia, 30.5 µM. Besides, the TGI in the assay on OVCAR-3 ovarian amounted to 32 µM; with RXF 393 renal, 26.3 µM; in the assay on SF-539 CNS, 45 µM; in the assay on SK-MEL-5 melanoma it was 47.3 µM.

For `CN1CCN(C2=CC(=O)c3c(O)ccc(O)c3C2=O)CC1`, the TGI in the assay with 786-0 renal was 3.91 µM; with ACHN renal, 2.88 µM; in the assay with HL-60(TB) leukemia, 0.785 µM; with HT29 colon, 0.946 µM; with IGROV1 ovarian, 3.06 µM; with K-562 leukemia it was 1.72 µM. The TGI in the assay on OVCAR-3 ovarian came to 0.611 µM; in the assay on RXF 393 renal it was 2.93 µM; in the assay with SF-539 CNS, 2.96 µM; in the assay with SK-MEL-5 melanoma it was 0.325 µM.

Regarding `CCN1CCC(O)(/C=C/c2ccc(C(C)C)cc2)C(C(=O)/C=C/c2ccc(C(C)C)cc2)C1` (stereo not given), the TGI in the assay with 786-0 renal was 3.4 µM; with ACHN renal it was 3.31 µM; with HL-60(TB) leukemia it was greater than 26.8 µM; in the assay with HT29 colon, 6.21 µM; with IGROV1 ovarian, 6.79 µM; with K-562 leukemia, greater than 29 µM. Further, the TGI in the assay on OVCAR-3 ovarian is 11.7 µM; in the assay on RXF 393 renal, 6.59 µM; in the assay with SF-539 CNS, 4.58 µM; with SK-MEL-5 melanoma, 12.7 µM.

In the case of `Cc1ccc([N+](=O)[O-])c2c(NCC(O)CO)ccnc12` (stereo not given), the TGI with 786-0 renal, in the assay on ACHN renal, in the assay with HL-60(TB) leukemia, in the assay on HT29 colon, with IGROV1 ovarian and with K-562 leukemia was greater than 100 µM in each case. Also, the TGI in the assay on OVCAR-3 ovarian was greater than 100 µM; with RXF 393 renal it was greater than 100 µM; in the assay with SF-539 CNS, 48.6 µM; in the assay on SK-MEL-5 melanoma, 42.3 µM.
